Measurements reported in PubChem BioAssay AID1259407 (Chemical Carcinogenesis Research Information System (CCRIS), 2018).
Activity calls are given as the source filed them. No rule for the calls is given here.

Test system: CCRIS mutagenicity, Ames/micronucleus/aberration tests
Assay: CCRIS mutagenicity studies
[1] = Test System: AMES SALMONELLA TYPHIMURIUM, Strain/Indicator: TA98, Metabolic Activation: NONE, Method: STANDARD PLATE
[2] = Test System: AMES SALMONELLA TYPHIMURIUM, Strain/Indicator: TA100, Metabolic Activation: NONE, Method: STANDARD PLATE
[3] = Test System: AMES SALMONELLA TYPHIMURIUM, Strain/Indicator: TA100, Metabolic Activation: RAT, LIVER, S-9, AROCLOR 1254, Method: STANDARD PLATE

Measured: mutagenic call

CC1(C)C(C=C(Cl)Cl)C1C(=O)OCc1cccc(Oc2ccccc2)c1 (stereo unspecified)
active: Test System: AMES SALMONELLA TYPHIMURIUM, Strain/Indicator: TA98, Metabolic Activation: NONE active; positive
inactive: Test System: AMES SALMONELLA TYPHIMURIUM, Strain/Indicator: TA97A, Metabolic Activation: NONE, Method: STANDARD PLATE inactive; negative | Test System: AMES SALMONELLA TYPHIMURIUM, Strain/Indicator: TA97A, Metabolic Activation: RAT, CECAL CELL FREE EXTRACT, Method: STANDARD PLATE inactive; negative | Test System: AMES SALMONELLA TYPHIMURIUM, Strain/Indicator: TA97A, Metabolic Activation: RAT, LIVER, S-9, AROCLOR 1254, Method: STANDARD PLATE inactive; negative | Test System: AMES SALMONELLA TYPHIMURIUM, Strain/Indicator: TA98, Metabolic Activation: NONE, Method: MICROSUSPENSION inactive; negative | [1] inactive; negative | Test System: AMES SALMONELLA TYPHIMURIUM, Strain/Indicator: TA98, Metabolic Activation: RAT, CECAL CELL FREE EXTRACT, Method: STANDARD PLATE inactive; negative | Test System: AMES SALMONELLA TYPHIMURIUM, Strain/Indicator: TA98, Metabolic Activation: RAT, LIVER, S-9, AROCLOR 1254, Method: STANDARD PLATE inactive; negative | Test System: AMES SALMONELLA TYPHIMURIUM, Strain/Indicator: TA98, Metabolic Activation: RAT, LIVER, S-9, POLYCHLORINATED BIPHENYLS inactive; negative | Test System: AMES SALMONELLA TYPHIMURIUM, Strain/Indicator: TA98, Metabolic Activation: S-9, Method: MICROSUSPENSION inactive; negative | Test System: AMES SALMONELLA TYPHIMURIUM, Strain/Indicator: TA100 inactive; negative | Test System: AMES SALMONELLA TYPHIMURIUM, Strain/Indicator: TA100, Metabolic Activation: NONE inactive; negative | Test System: AMES SALMONELLA TYPHIMURIUM, Strain/Indicator: TA100, Metabolic Activation: NONE, Method: MICROSUSPENSION inactive; negative | [2] inactive; negative | Test System: AMES SALMONELLA TYPHIMURIUM, Strain/Indicator: TA100, Metabolic Activation: RAT, CECAL CELL FREE EXTRACT, Method: STANDARD PLATE inactive; negative | [3] inactive; negative | Test System: AMES SALMONELLA TYPHIMURIUM, Strain/Indicator: TA100, Metabolic Activation: S-9, Method: MICROSUSPENSION inactive; negative | Test System: AMES SALMONELLA TYPHIMURIUM, Strain/Indicator: TA1535, Metabolic Activation: NONE, Method: STANDARD PLATE inactive; negative | Test System: AMES SALMONELLA TYPHIMURIUM, Strain/Indicator: TA1535, Metabolic Activation: RAT, LIVER, S-9, AROCLOR 1254, Method: STANDARD PLATE inactive; negative | Test System: AMES SALMONELLA TYPHIMURIUM, Strain/Indicator: TA1537, Metabolic Activation: NONE, Method: STANDARD PLATE inactive; negative | Test System: AMES SALMONELLA TYPHIMURIUM, Strain/Indicator: TA1537, Metabolic Activation: RAT, LIVER, S-9, AROCLOR 1254, Method: STANDARD PLATE inactive; negative | Test System: CHINESE HAMSTER V-79, Strain/Indicator: V-79/6-THIOGUANINE, Metabolic Activation: NONE, Method: STANDARD PLATE inactive; negative | Test System: CHINESE HAMSTER V-79, Strain/Indicator: V-79/6-THIOGUANINE, Metabolic Activation: RAT HEPATOCYTES, Method: STANDARD PLATE inactive; negative | Test System: CHINESE HAMSTER V-79, Strain/Indicator: V-79/OUABAIN, Metabolic Activation: NONE, Method: STANDARD PLATE inactive; negative | Test System: CHINESE HAMSTER V-79, Strain/Indicator: V-79/OUABAIN, Metabolic Activation: RAT HEPATOCYTES, Method: STANDARD PLATE inactive; negative | Test System: E. COLI, Strain/Indicator: WP2, Metabolic Activation: NONE, Method: STANDARD PLATE inactive; negative | Test System: E. COLI, Strain/Indicator: WP2, Metabolic Activation: RAT, LIVER, S-9, AROCLOR 1254, Method: STANDARD PLATE inactive; negative

C=CCOC(=O)c1ccccc1C(=O)OCC=C
active: End Point: IN VITRO CHROMOSOMAL ABERRATIONS, Test System: CHO CELLS, Metabolic Activation: RAT, LIVER, S-9, AROCLOR 1254 active; positive; weak response
inactive: Test System: AMES SALMONELLA TYPHIMURIUM, Strain/Indicator: TA98, Metabolic Activation: HAMSTER, LIVER, S-9, AROCLOR 1254, Method: PREINCUBATION inactive; negative | Test System: AMES SALMONELLA TYPHIMURIUM, Strain/Indicator: TA98, Metabolic Activation: NONE, Method: PREINCUBATION inactive; negative | Test System: AMES SALMONELLA TYPHIMURIUM, Strain/Indicator: TA98, Metabolic Activation: RAT LIVER S-9, PHENOBARBITAL AND BETA-NAPHTHOFLAVONE, Method: PREINCUBATION inactive; negative | Test System: AMES SALMONELLA TYPHIMURIUM, Strain/Indicator: TA98, Metabolic Activation: RAT, LIVER, S-9, AROCLOR 1254, Method: PREINCUBATION inactive; negative | Test System: AMES SALMONELLA TYPHIMURIUM, Strain/Indicator: TA100, Metabolic Activation: HAMSTER, LIVER, S-9, AROCLOR 1254, Method: PREINCUBATION inactive; negative | Test System: AMES SALMONELLA TYPHIMURIUM, Strain/Indicator: TA100, Metabolic Activation: NONE, Method: PREINCUBATION inactive; negative | Test System: AMES SALMONELLA TYPHIMURIUM, Strain/Indicator: TA100, Metabolic Activation: RAT LIVER S-9, PHENOBARBITAL AND BETA-NAPHTHOFLAVONE, Method: PREINCUBATION inactive; negative | Test System: AMES SALMONELLA TYPHIMURIUM, Strain/Indicator: TA100, Metabolic Activation: RAT, LIVER, S-9, AROCLOR 1254, Method: PREINCUBATION inactive; negative | Test System: AMES SALMONELLA TYPHIMURIUM, Strain/Indicator: TA1535, Metabolic Activation: HAMSTER, LIVER, S-9, AROCLOR 1254, Method: PREINCUBATION inactive; negative | Test System: AMES SALMONELLA TYPHIMURIUM, Strain/Indicator: TA1535, Metabolic Activation: NONE, Method: PREINCUBATION inactive; negative | Test System: AMES SALMONELLA TYPHIMURIUM, Strain/Indicator: TA1535, Metabolic Activation: RAT LIVER S-9, PHENOBARBITAL AND BETA-NAPHTHOFLAVONE, Method: PREINCUBATION inactive; negative | Test System: AMES SALMONELLA TYPHIMURIUM, Strain/Indicator: TA1535, Metabolic Activation: RAT, LIVER, S-9, AROCLOR 1254, Method: PREINCUBATION inactive; negative | Test System: AMES SALMONELLA TYPHIMURIUM, Strain/Indicator: TA1537, Metabolic Activation: HAMSTER, LIVER, S-9, AROCLOR 1254, Method: PREINCUBATION inactive; negative | Test System: AMES SALMONELLA TYPHIMURIUM, Strain/Indicator: TA1537, Metabolic Activation: NONE, Method: PREINCUBATION inactive; negative | Test System: AMES SALMONELLA TYPHIMURIUM, Strain/Indicator: TA1537, Metabolic Activation: RAT LIVER S-9, PHENOBARBITAL AND BETA-NAPHTHOFLAVONE, Method: PREINCUBATION inactive; negative | Test System: AMES SALMONELLA TYPHIMURIUM, Strain/Indicator: TA1537, Metabolic Activation: RAT, LIVER, S-9, AROCLOR 1254, Method: PREINCUBATION inactive; negative | Test System: E.COLI, Strain/Indicator: WP2UVRA/PKM101, Metabolic Activation: NONE, Method: PREINCUBATION inactive; negative | Test System: E.COLI, Strain/Indicator: WP2UVRA/PKM101, Metabolic Activation: RAT LIVER S-9, PHENOBARBITAL AND BETA-NAPHTHOFLAVONE, Method: PREINCUBATION inactive; negative

Cc1ccc2nc3c(c(C)c2c1)[C@@H](O)[C@H](O)c1ccccc1-3
inactive: [3] inactive; negative

Cc1ccc(C)c2c1c1ccccc1n2C
inactive: [1] inactive; negative | [2] inactive; negative
active: Test System: AMES SALMONELLA TYPHIMURIUM, Strain/Indicator: TA98, Metabolic Activation: RAT LIVER S-9, AROCLOR 1254, Method: STANDARD PLATE active; positive | Test System: AMES SALMONELLA TYPHIMURIUM, Strain/Indicator: TA100, Metabolic Activation: RAT LIVER S-9, AROCLOR 1254, Method: STANDARD PLATE active; positive
